Data published in patent publication US20050172344A1, “Cell cultures from animal models of Alzheimer's disease for screening and testing drug efficacy” (priority 2002, published 2005).

Key:
Type in all cases: cell-based, mouse
[1] = system: cultured murine hippocampal neurons; experiment: evoked EPSCs and tetanus-induced potentiation in cultured neurons; conditions: for effect on EPSC amplitude (in words): evoked EPSCs, FIG. 2B
[2] = system: cultured hippocampal neurons from WT mice; experiment: basal mEPSC frequency (spontaneous neurotransmitter release), whole cell patch clamp, WT cultures
[3] = system: cultured hippocampal neurons from double transgenic mAPP/mPS1 mice; experiment: glutamate-induced enhancement of mEPSC frequency (synaptic plasticity), mAPP/mPS1 cultures
[4] = system: cultured hippocampal neurons from double transgenic mAPP/mPS1 mice; experiment: basal mEPSC frequency (spontaneous neurotransmitter release), whole cell patch clamp, mAPP/mPS1 cultures
[5] = system: cultured hippocampal neurons from WT mice; experiment: glutamate-induced increase of mEPSC frequency, WT cultures
[6] = system: cultured hippocampal neurons from WT mice; experiment: FM 1-43 vesicle cycling: number of active presynaptic boutons, WT cultures
Source text: Cationic styrylpyridinium dye FM 1-43 has become an established tool for identifying actively firing neurons and for investigating the mechanisms of activity-dependent vesicle cycling in widely different species. These water soluble dyes, which are non-toxic to cells virtually nonfluorescent in aqueous medium, become internalized within recycled synaptic vesicles and the nerve terminals become brightly stained. The amount of FM 1-43 taken up per vesicle by endocytosis equals the amount of dye released upon exocytosis.
One of the methods to induce exocytosis/endocytosis in the neuronal culture is by perfusion of the hyperkalemic solution. […] The perfusion solution is then changed back to normal bath solution for 10 minutes to wash off the dye from the external medium. ADVASEP-7 (1 mM, CyDex, Inc., Overland Park, Kans.), an anionic cyclodextrin complexing agent is introduced for 60 seconds in the washing bath solution at 1 and 6 minutes of washing for enhanced removal of the dye from the external medium (FIG. 6A). After 10 min wash period, which is sufficient for the complete recycling and repriming of the dye-stained population of synaptic vesicles, an image was then taken to record the loading of FM 1-43 in the synaptic boutons. The culture is then exposed to multiple 15 seconds application of hyperkalemic bath solution (without FM 1-43) to evoke repeated cycles of exocytosis, which facilitate release of the dye from the vesicles. An image is taken after 30 minutes of repeated cycles of exocytosis and washing with normal bath solution. The difference between the images before and after multiple exposures to hyperkalemic solution gives the measure of FM 1-43 stained vesicles.
To study glutamate-induced presynaptic plasticity changes, the culture is exposed to glutamate (200 μM) in Mg^2+ free bath solution for 30 seconds and then washed out in approximately 1 minute. After 30 minutes of glutamate exposure, the staining and destaining procedure is repeated. NMDA receptor antagonist, d-AP5 (40 μM) and non-NMDA receptor antagonist, CNQX (20 μM) are included in the hyperkalemic solution to block possible recurrent excitation and induction of activity-dependent plasticity. All images were acquired using Nikon D-Eclipse C1 confocal microscope. Cultures were viewed with 60×/1.2 nA water immersion objective. An investigator blinded to experimental conditions obtained quantitative data using NIH Image (v. 1.61). For each image, the intensity of individual puncta and total number of puncta was assessed. FIG. 6B illustrates exemplary cycling vesicles before and after glutamate exposure in cell cultures from wild type (WT) and mAPP/mPS1 littermates. A brief application of glutamate produces enhancement of cycling vesicles in WT but not mAPP/mPS1 cell cultures (FIG. 6C).
Another finding on cell cultures from transgenic mouse models of Alzheimer's disease is represented by the increase in basal number of functional presynaptic release sites as well as the lack of the glutamate-induced increase in number of functional presynaptic release sites. These tests were performed using FM 1-43. Therefore, we also tested whether these phenomena occurred in non transgenic cultures following exposure to exogenous oligomeric Aβ. […] Brief application (˜30 sec) of 200 μM glutamate in Mg^2+ free medium caused a significant increase in number of active boutons in cultures from vehicle-treated WT animals (269.70±33.12%, n=6, p<0.001, one way ANOVA) ) (FIG. 12B). […]

[7] = system: cultured hippocampal neurons from WT mice; experiment: immunocytochemistry: synapsin I- and synaptophysin-immunoreactive puncta, WT cultures
Protocol: Glutamate in Mg^2+-free bath solution, or normal bath solution (control) was added directly to the culture dish and washed out after approximately 1 min by exchanging the solution with phosphate-buffered saline (PBS), (pH 7.4) 2 times. The cultures were fixed starting approximately 30 min after the application of glutamate, or control solution. The cultures were incubated overnight with affinity-purified rabbit anti-synapsin I (Molecular Probes) diluted 1:200. The secondary antibody was goat anti-rabbit labeled with Rhodamin Red diluted 1:500 in 4% goat serum in PBS. Cells were mounted in Vectashield (Vector Labs) and examined by confocal microscope (Nikon D-Eclipse C1). The cells were excited using the 568 nm lines of a krypton-argon laser to image Cy3. Kalman averages of 4 scans were collected for each image. Ten neurons in each culture dish were selected at random and analyzed by an observer who was blind to the experimental treatment. Fields with roughly equal densities of neurites were chosen for analysis. Synapsin I clusters in a representative field (94×142 μm) around the neuron were quantified using a computer program NIH Image (v. 1.61). Individual clusters were identified based on having a fluorescence intensity that exceeded a threshold set above background and a diameter between 0.5 and 5 μm. For all measures, the mean result from the 10 neurons in the dish was normalized to the mean from control dishes in the same culture batch because variability between different culture batches was greater than between dishes in the same batch. FIG. 7 illustrates the effects of glutamate on the number of synapsin I-immunoreactive clusters in WT and mAPP/mPS1 cell cultures. Synapsin I-immunoreactive clusters are more numerous in glutamate-exposed than control cell WT cultures (FIGS. 7A, 7B).
In light of the microstructural changes involving synapsin I and synaptophysin in cultures from transgenic animals, we also tested whether these changes could be induced by the exogenous application of Aβ. […] We next tested whether the number of synapsin I- and synaptophysin-immunoreactive puncta was increased after glutamate application in Aβ-treated cultures. […] These findings indicate that Aβ can produce coordinate changes in the distribution and/or expression of presynaptic proteins.
Aβ preparation: Oligomeric Aβ42 was prepared as previously described (Stine et al., 2003). Briefly, the lyophilized peptide (American Peptide) was re-suspended in 100% 1,1,1,3,3,3-hexafluoro-2-propanol (HFIP; Sigma). The solution was aliquoted and the HFIP was allowed to evaporate in the fume hood. The resulting clear peptide films were dried under vacuum in a SpeedVac and stored at −20° C. Twenty-four hours prior to use, the aliquots were added dimethylsulfoxide (DMSO) (Sigma) and sonicated for 10 minutes. Oligomeric Aβ42 was obtained by diluting Aβ42-DMSO into cell culture media, vortexed for 30 seconds and incubated at 4° C. for 24 hours until the use. To induce plasticity 200 μM glutamate in a Mg^2+-free solution was added for ˜30 sec.

[8] = Aβ42-treated cultures fixed 30 minutes after 200 μM glutamate application
[9] = WT cultures, 200 pM oligomeric Aβ42 for 24 hours vs vehicle-treated

N#Cc1cc2[nH]c(=O)c(=O)[nH]c2cc1[N+](=O)[O-] [CNQX]
effect on EPSC amplitude (in words) [1]: blocks the remaining part of the EPSC

CC(C)C[C@H](NC(=O)[C@H]1O[C@@H]1C(=O)O)C(=O)NCCCCN=C(N)N [E64]
basal mEPSC frequency ([2]; WT cultures treated with E64 1 μM added daily): 332 events/minute | mEPSC frequency after glutamate (synaptic plasticity) ([3]; mAPP/mPS1 cultures treated with E64, 45 minutes after application of glutamate, n=6): 346.44±41% | effect on synaptic plasticity (in words) ([3]; mAPP/mPS1 cultures, glutamate-induced mEPSC enhancement, FIG. 5): re-established normal synaptic plasticity | basal mEPSC frequency ([4]; mAPP/mPS1 cultures treated with E64 1 μM added daily to culture medium): 435 events/minute | effect on basal mEPSC frequency (in words) ([4]; mAPP/mPS1 cultures, E64 for 3 to 4 days, FIG. 4): re-established normal mEPSC frequency

N[C@@H](CCCP(=O)(O)O)C(=O)O [APV]
effect on potentiation of EPSC by high frequency stimulation (in words) ([1]; 100 Hz tetani, extracellular application, FIG. 2C): blocked | effect on EPSC amplitude (in words) [1]: reduces the amplitude of the EPSCs

oligomeric Aβ42: lyophilized β-amyloid 42 peptide (American Peptide) treated with HFIP and DMSO, then diluted into culture media to form oligomers
effect on glutamate-induced mEPSC frequency increase (in words) ([5]; FIG. 11B): blocks | mEPSC frequency after glutamate ([5]; WT cultures, 200 pM Aβ42 for 24 hours, 45 min after 200 μM glutamate, n=10): 104.43±3.05 % of pre values | basal mEPSC frequency with vehicle added instead of glutamate ([5]; WT cultures, Aβ-treated, vehicle instead of glutamate, n=8): 112.00±11.34 % of pre values | mEPSC amplitude after glutamate treatment (in words) ([5]; cultures treated with Aβ): did not produce any change | effect on basal frequency of spontaneous release of neurotransmitter (in words) ([2]; FIG. 11A): increases | mEPSC amplitude vs vehicle-treated cultures (in words) ([2]; WT cultures, 200 pM oligomeric Aβ42 for 24 hours): did not find any difference | basal frequency of spontaneous release of neurotransmitter ([2]; WT cultures, 200 pM oligomeric Aβ42 for 24 hours, n=8): 671.46 ± 48.28 min⁻¹ | mean fluorescence intensity of the labeled boutons (in words) ([6]; Aβ-treated cultures): did not find any change | number of active boutons after glutamate ([6]; Aβ-treated cultures, ~30 sec 200 μM glutamate in Mg2+ free medium, n=8): 86.80±4.6 % increase | effect on basal number of active presynaptic boutons (in words) ([6]; FIG. 12A): increases | effect on glutamate-induced increase in the number of active boutons (in words) ([6]; FIG. 12B): blocks | basal number of active boutons ([6]; WT cultures treated for 24 hrs with Aβ42, n=15): 38.15±3.6 boutons/unit length of neurite | number of synapsin I-immunoreactive puncta after glutamate [7, 8]: 111.55±8.97% | number of synaptophysin-immunoreactive puncta after glutamate [7, 8]: 115.48±5.76% | effect on basal number of synapsin I- and synaptophysin-immunoreactive puncta (in words) ([7]; FIG. 13A): increases | effect on glutamate-induced increase in synapsin I- and synaptophysin-immunoreactive puncta (in words) ([7]; FIG. 13B): blocks | basal number of synapsin I immunoreactive puncta [7, 9]: 1155.53±6.78 % of control | basal number of synaptophysin immunoreactive puncta [7, 9]: 146.13±6.15%
